From US20090214544A1, “Method of treating cd30 positive lymphomas” (MEDAREX, priority 2005, published 2009)

How the values were obtained:
[1] = guidance for hydrocortisone equivalents; actual potency may vary slightly; cited from earlier work
[2] = test system: Hodgkin's Disease (HD), CD30 positive lymphoma; assay: Combination therapy of anti-CD30 antibody and glucocorticosteroid in patients with Hodgkin's Disease; assay type: in vivo, human
Experimental: The patient, diagnosed with HD, received 5 mg/kg anti-CD30 antibody 5F11 by i.v. infusion once per day per week for 3 weeks. The week after completing antibody therapy (i.e., fourth week from start of therapy), the patient received 40 mg oral dexamethasone once per day for 2 days; one month later the patient received another 40 mg oral dexamethasone once per day for 4 days; two weeks later the patient received a third regimen of 40 mg oral dexamethasone once per day for 4 days.
Patient 2, diagnosed with HD, received 15 mg/kg anti-CD30 antibody 5F11 by i.v. infusion once per day per week for 3 weeks. At the start of week 3 of antibody therapy, the patient received one dose of 50 mg oral dexamethasone. After completion of antibody therapy (i.e., at the beginning of week four following the start of therapy), the patient received one dose of 100 mg oral prednisolone.
Patient 4, diagnosed with HD, received 1 mg/kg anti-CD30 antibody […] by i.v. infusion once per day per week for 3 weeks. On the second day of week 1 after beginning therapy, the patient received 40 mg oral dexamethasone once per day for 4 days, followed by no steroid therapy for 10 days. Thus, a dexamethasone cycle was completed over a 14 day period. For this patient, 8 cycles of dexamethasone therapy were completed over a period of 4 months.

[3] = test system: T cell lymphoma, CD30 positive lymphoma; assay: Combination therapy of anti-CD30 antibody and glucocorticosteroid in a patient with T cell lymphoma; assay type: in vivo, human; settings: Patient 3, T cell lymphoma; 40 mg oral dexamethasone daily for 4 days, then 50 mg oral prednisolone daily for 20 days; 15 mg/kg 5F11 i.v. once per week for 3 weeks from second week
Experimental: Patient 3, diagnosed with T cell lymphoma, received 40 mg oral dexamethasone once per day for 4 days. On day 5, dexamethasone treatment ceased and 50 mg oral prednisolone was administered once per day for 20 days. At the beginning of the second week of steroid therapy, antibody therapy was initiated by administering 15 mg/kg anti-CD30 antibody 5F11 by i.v. infusion once per day per week for 3 weeks.

[4] = test system: ALCL and various HD-derived cell lines; settings: in vitro and in vivo; Borchmann et al., Blood 2003; cited from earlier work

Row | Molecule | Relative potency in mg to hydrocortisone [1] | further results
1 | C[C@]12CCC(=O)C=C1CC[C@@H]1[C@@H]2[C@@H](O)C[C@@]2(C)[C@H]1CC[C@]2(O)C(=O)CO [Cortisol] | 1.25 | –
2 | C[C@]12CCC(=O)C=C1CC[C@@H]1[C@@H]2[C@@H](O)C[C@@]2(C)[C@H]1CC[C@]2(O)C(=O)CO [Hydrocortisone] | 1 | –
3 | C[C@]12C=CC(=O)C=C1CC[C@H]1[C@@H]3C[C@@H](O)[C@](O)(C(=O)CO)[C@@]3(C)C[C@H](O)[C@@]12F [Triamcinolone] | 5 | –
4 | C[C@]12C=CC(=O)C=C1CC[C@@H]1[C@@H]2[C@@H](O)C[C@@]2(C)[C@H]1CC[C@]2(O)C(=O)CO [Prednisolone] | 4 | –
5 | C[C@]12CCC(=O)C=C1CC[C@@H]1[C@@H]2C(=O)C[C@@]2(C)[C@H]1CC[C@]2(O)C(=O)CO [Cortisone] | 0.8 | –
6 | 5F11: fully human anti-CD30 monoclonal antibody; VH SEQ ID NO: 10, VL SEQ ID NO: 12; VH 4-34 and VK L15 (antibody, chains of the INN, looked up, V domains shown, fully human anti-CD30 monoclonal antibody; VH 4-34 and VK L15) VH: QVQLQQWGAGLLKPSETLSLTCAVYGGSFSAYYWSWIRQPPGKGLEWIGDINHGGGTNYNPSLKSRVTISVDTSKNQFSLKLNSVTAADTAVYYCASLTAYWGQGSLVTVSS VL: DIQMTQSPTSLSASVGDRVTITCRASQGISSWLTWYQQKPEKAPKSLIYAASSLQSGVPSRFSGSGSGTDFTLTISSLQPEDFATYYCQQYDSYPITFGQGTRLEIK | – | clinical response ([2]; Patient 1, HD, 5 mg/kg 5F11 i.v. once per week for 3 weeks, then 40 mg oral dexamethasone once per day for 2 days, 4 days and 4 days (three regimens)): partial response; clinical response ([2]; Patient 2, HD, 15 mg/kg 5F11 i.v. once per week for 3 weeks, one dose 50 mg oral dexamethasone at week 3, one dose 100 mg oral prednisolone at week 4): partial response, which improved to complete a response; clinical response ([2]; Patient 4, HD, 1 mg/kg antibody i.v. once per week for 3 weeks, 8 cycles of 40 mg oral dexamethasone daily for 4 days per 14 days over 4 months): partial response; clinical response [3]: complete response; efficacy against ALCL and various HD-derived cell lines [4]: shown efficacy
